Source: USRE49050E1, “Traditional Chinese medicine composition, and preparation and application thereof” (Tasly Pharmaceutical Group Co., Ltd., priority 2013, dated 2022)

Legend:
Type in all cases: in vivo
[1] = tested on: ADP-induced platelet aggregation; test: Platelet aggregation rate trial in rabbits, ADP-induced; conditions: ADP 3 μg/ml; dose 60 mg/kg intragastric once a day for 7 days; n = 8
Description: (§1) The rabbits were randomly grouped into 4 groups: the model group was given with distilled water, the aspirin group ([…]), Extract A groups of low dose and high dose at 42 and 84 mg/kg (respectively 1 2 times of clinic equivalent dosage), intragastrically administrated, once a day for 7 consecutive days. The volume of medicine administrated was 1 ml/kg body weight. 60 min after intragastric administration on 7th day, the animals were anesthetized locally, blooded through carotid artery, anticoagulated with sodium citrate (3.8%) 1:9 and centrifugated at 1000 r/min for 10 min. Platelet-rich plasma (PRP) was taken and the remain centrifugated at 3000 r/min to take platelet-poor plasma (PPP. Aggregation was induced by ADP (final concentration 3 μg/ml), AA (final concentration 80 μg/ml) and collagen ([…]). […] platelet aggregation & coagulation factor analyzer was used to measure the maximum platelet aggregation rate and to calculate inhibition rate according to following formula. [formula] Results

[2] = tested on: AA-induced platelet aggregation; test: Platelet aggregation rate trial in rabbits, AA-induced; conditions: AA 80 μg/ml; dose 60 mg/kg intragastric once a day for 7 days; n = 8
Description: as §1

[3] = tested on: collagen-induced platelet aggregation; test: Platelet aggregation rate trial in rabbits, collagen-induced; conditions: dose 60 mg/kg intragastric once a day for 7 days, n = 8
Description: as §1

CC(=O)Oc1ccccc1C(=O)O [Aspirin]
Platelet aggregation rate [1]: 18.96 ± 4.11 % | Platelet aggregation rate [2]: 6.13 ± 2.03 % | Platelet aggregation rate [3]: 6.23 ± 2.41 %
